Measured values as given in BindingDB's records for doi:10.1016/j.bmcl.2004.06.042 (Universidad De Buenos Aires, 2004).

Biological target: Hypoxanthine-guanine phosphoribosyltransferase (Trypanosoma cruzi)
Test: Inhibition of hypoxanthine-guanine phosphoribosyltransferase (TcHPRT)

Compound: CN(C)CCC(O)(P(=O)(O)O)P(=O)(O)O [hydrogen 3-(dimethylammonio)-1-hydroxy-1-(hydroxyphosphinato)propylphosphonate]
- Ki: 126 µM
